According to patent publication US5707815A, “Mammalian monocyte chemoattractant protein receptors and assays using them” (Regents of the University of California, priority 1995, dated 1998):
Read-outs that look alike come from different tables or passages of the source.

Assays:
MCP-1RB receptor [1] = type: cell-based, human; settings: for IC50: Table I, read-out: Inhibition of Adenylyl Cyclase IC50 (nM) MCP-1RB; for activation of the MCP-1 receptor in the adenylyl cyclase assay: high concentrations
Experimental: (§1) To investigate inhibition of adenylyl cyclase activity, HEK-293 cells stably-transfected with the MCP-1RB receptor and the MIP-1α/RANTES receptor were grown until confluent in 24-well tissue culture dishes and labeled overnight with 2 μCi/ml of [^3 H]adenine (25-30 Ci/mmol) (New England Nuclear, Boston, Mass.) in MEM-EBSS supplemented with 10% FCS. The next day, the cells were washed by incubation at room temperature with 0.5 ml of serum-free MEM-EBSS media supplemented with 10 mM HEPES, 1 mg/ml BSA, and 1 mM IBMX (3-isobutyl-1-methylxanthine) for 5 min. […] The incubation was terminated by replacement of the media with 1 ml of ice-cold 5% TCA (trichloroacetic acid), 1 mM cAMP, and 1 mM ATP (Sigma). Following incubation at 4° C. for 30 min, the labeled [^3 H]ATP and [3H]cAMP pools were separated and quantitated by chromatography on Dowex 50W (200-400 mesh, hydrogen form, from Sigma) and neutral alumina columns (also from Sigma), as described in Hung, J. Biol. Chem. 267:20831-34 (1992) and Wong, Nature 351: 63-65 (1991). The 1 ml acid supernatant was loaded onto a 1-ml Dowex 50W column and the ATP pool eluted with 3 ml of H2 O. The Dowex 50W columns were then placed over 1-ml alumina columns, and 10 ml of H2 O was added to the Dowex resin and the eluant allowed to drop directly onto the neutral alumina. The cAMP pool was then eluted directly from the alumina with 5 ml of 0.1M imidazole/0.01mM sodium azide. The [^3 H]ATP and [^3 H]cAMP fractions were counted by liquid scintillation spectroscopy. The cAMP pool for each sample was normalized to its own ATP pool and expressed as a ratio by the equation (cAMP cpms/ATP cpms)×100. In each experiment full dose-response curves were generated and expressed as a percent of the forskolin control.
(§2) Inhibition of MCP-1RB receptor activation by bordetella pertussis toxin was investigated. Pertussis toxin (List Biological Labs, Inc., Campbell, Calif.) was dissolved in 0.01M sodium phosphate, pH 7.0, 0.05M sodium chloride and diluted into normal serum containing media at final concentrations of 0.1 ng/ml to 100 ng/ml, and incubated with cells overnight (14-16 h) at 37° C. The conditions of the Pertussis toxin treatment of the 293 cells were identical for calcium fluorimetric and adenylyl cyclase experiments. In the adenylyl cyclase experiments, the Pertussis toxin was added at the same time as [^3 H]adenine.
(§3) Dose response curves generated in the calcium fluorimetric and adenylyl cyclase inhibition assays were fit by a nonlinear least squares program to the logistic equation:
(§4) Effect=max effect/[1+(EC50 /(agonist)^n)]
(§5) where n and EC50 represent the Hill coefficient and the agonist concentration that elicited a half-maximal response, respectively, and were derived from the fitted curve. Curve fitting was done with the computer program "Prism" (by Graph Pad, San Diego, Calif.). Results represent the mean ±SE. The 95% confidence intervals (CI) of the EC50 and IC50 values, when given, were calculated from the log EC50 and IC50 values, respectively.

MCP-1RB receptor [2] = assay: Intracellular calcium mobilization (indo-1) in stably transfected MCP-1RB/293 cells; type: cell-based, human; settings: for block of stimulation of the cells by MCP-1 / stimulation of calcium signals: MCP-1RB/293 cells; for stimulation of calcium signals: high concentrations
Experimental: Calcium mobilization in 293 cells was then investigated. Transfected HEK-293 cells were grown until confluent, trypsinized briefly, washed with phosphate buffered saline containing 1 mg/ml BSA (PBS-BSA), and resuspended in serum-free MEM-EBSS supplemented with 1 mg/ml BSA and 10 mM HEPES (pH 7.0) at a density of 2×10^7 cells/ml. The cells were incubated in the dark at 37° C. for 20 min in the presence of 5-10 μg/ml indo-1 AM (Molecular Probes, Inc., Eugene, Oreg.). Nine volumes of PGS-BSA were added, and the cells were incubated for an additional 10 min at 37° C., pelleted by centrifugation, and washed twice with 50 ml of the PBS-BSA solution. Washed, indo-1-loaded cells were then resuspended in Hank's Balanced Salt Solution (1.3 mM Ca^2+) supplemented with 1 mg/ml BSA (HBS-BSA) at a density of approximately 0.5×10^6 cells/ml at room temperature. To measure intracellular calcium ([Ca^2+ ]i), 0.5 ml of the cell suspension was placed in a quartz cuvette in a Hitachi F-2000 fluorescence spectrophotometer. […] Intracellular calcium was measured by excitation at 350 nm and fluorescence emission detection at 490 nm (F1) and 410 nm (F2) wavelengths. The [Ca^2+ ]i was estimated by comparing the 490/410 fluorescence ratio after agonist application (R) to that of calibration ratios measured at the end of each run, according to the equation:
[Ca^2+ ]i =Kd ×[(R--Rmin)/(Rmax
where Rmax and Rmin represent the fluorescence ratio under saturating (1.3 mM Ca^2+) and nominally free (10 mM EGTA, Sigma Chemical Co.) calcium conditions, Kd is the dissociation constant of calcium for indo-1, R is the fluorescence ratio, and Sf2/Sb2 is the fluorescence ratio of free and bound indo-1 dye at 410 nm. See Thomas, AP and Delaville, F (1991) in Cellular Calcium, a Practical Approach, Oxford Univ. Press, pp. 1-54.
To quantirate calcium responses, MCP-1 dose response curves were generated in each experiment and the results were expressed as a percent of the maximum calcium signal (at 300 nM MCP-1) measured in that experiment. The changes in [Ca^2+ ]i levels in response to each concentration of agonist were determined by subtracting the baseline from peak [Ca^2+ ]i levels, which were determined by averaging 5 seconds of data prior to agonist addition and surrounding the peak response, respectively. In experiments done to determine the role of extracellular calcium, 3 mM EGTA was added 60-90 seconds prior to MCP-1. […] All experiments were performed at room temperature.
as §2, §3, §4, §5

MIP-1α/RANTES receptor = assay: Inhibition of adenylyl cyclase (cAMP accumulation) in HEK-293 cells stably transfected with MIP-1α/RANTES receptor; type: cell-based; settings: for activation of the MIP-1α/RANTES receptor: at up to 1 μM
Experimental: as §1
In similar experiments the MIP-1α/RANTES receptor was stably transfected into 293 cells and also found to mediate potent and dose-dependent inhibition of adenylyl cyclase activity. Unlike the MCP-1RB receptor, however, the MIP-1α/RANTES receptor was activated by multiple chemokines with varying degrees of potency.
as §3, §4, §5

MCP-1RB = assay: Ca45 efflux assay in Xenopus oocytes injected with MCP-1RB cRNA; type: cell-based, human; settings: ligand at 500 nM
Experimental: (§6) The calcium efflux assay was performed to confirm expression of functional MCP-1R protein and to determine whether the MCP-1 receptors A and B conferred responsiveness to MCP-1 or other chemokines. In this assay, MCP-1RA and 1RB cRNA was microinjected into Xenopus oocytes and receptor signaling activities measured by detection of agohist-induced calcium mobilization.
(§7) As described in Vu, Cell 64:1057-68(1991), cRNA was prepared by SP6 RNA polymerase transcription from a NotI linearized vector and run on an agarose gel to confirm a single band of the expected size. One day after harvesting, oocytes were injected with 20 ng of cRNA in a total volume of 50 nl per oocyte. After incubation in modified Barth's buffer for 2 days at 16° C., the oocytes were loaded with Ca^45 (50 uCi/ml, Amersham, Arlington Heights, Va.) for 3 hours, washed for one hour, and placed into wells of a 24-well dish in groups of seven, in a volume of 0.5 ml Ca^45 efflux was determined by collecting the media at 10 minute intervals and counting beta emissions in a liquid scintillation counter. […] Uninjected oocytes were used as controls.

MCP-1RA = assay: Ca45 efflux assay in Xenopus oocytes injected with MCP-1RA cRNA; type: cell-based, human; settings: ligand at 500 nM
Experimental: as §6, §7

MCP-1RB receptor [3] = assay: Equilibrium binding of 125I-MCP-1 to MCP-1RB expressing HEK-293 cells; set-up: species or system human; settings: unlabeled chemokine, 500 pM 125I-labeled MCP-1
Experimental: Equilibrium binding assays were then performed using the method of Ernst, J. Immunol. 152:3541-49 (1994). […] Competition experiments were performed using 500 pM ^125 I-labeled MCP-1 and the concentrations of unlabeled chemokines as indicated in FIG. 7A-B.
Equilibrium binding data were analyzed according to the method of Scatchard using the program "LIGAND" (Biosoft, Ferguson, Mo.) on a Macintosh computer. See Munson, Anal. Biochem. 107: 220-39 (1980).

MM6 cells = assay: MCP-1 induced calcium flux in MM6 cells (calcium efflux assay); type: cell-based, human; settings: label = chemokine given first, MCP-1 versus RANTES (or MIP-1α)
Experimental: Because monocytes are difficult to isolate in usable quantity and express less than 2000 high affinity MCP-1 binding sites per cell, a cultured cell line that responded well to MCP-1 had to be identified. Using the calcium effiux assay as described in Vu, Cell 64:1057-68(1991), MCP-1 induced calcium fluxes in various cell lines were measured. […] In contrast, a dose-dependent calcium flux was detected in MM6 cells, with half maximal stimulation at 4nM MCP-1.

[4] = MIP-1α/RANTES receptor, read-out: IC50 for inhibition of adenylyl cyclase
[5] = pretreatment overnight, 0.1 to 100 ng/ml

| Molecule | block of stimulation of the cells by MCP-1 (MCP-1RB receptor [2]) | stimulation of calcium signals (MCP-1RB receptor [2]) | IC50 (MCP-1RB receptor [1]) [nM] | activation of the MCP-1 receptor in the adenylyl cyclase assay (MCP-1RB receptor [1]) | calcium efflux response elicited (MCP-1RB) | calcium efflux response elicited (MCP-1RA) | competition for 125I-MCP-1 binding (MCP-1RB receptor [3]) | further results |
| --- | --- | --- | --- | --- | --- | --- | --- | --- |
| C=C[C@@]1(C)CC(=O)[C@]2(O)[C@@]3(C)[C@@H](O)CCC(C)(C)[C@@H]3[C@H](O)[C@H](OC(C)=O)[C@@]2(C)O1 [Forskolin, forskolin, reference compound] |  |  |  |  |  |  |  | increase of cAMP levels (MCP-1RB receptor [1]; hek-293 cells, 20 min, 10 µM): 16 fold |
| Gro-α: C-X-C chemokine | failed to block | failed to stimulate significant calcium signals | > 1000 | Virtually no activation |  |  |  | IC50 (MIP-1α/RANTES receptor; Table I, read-out: Inhibition of Adenylyl Cyclase IC50 (nM) MIP-1α/RANTES R): > 1000 nM; activation of the MIP-1α/RANTES receptor (MIP-1α/RANTES receptor): did not activate |
| RANTES: C--C chemokine, obtained from R&D | failed to block | failed to stimulate significant calcium signals | > 1000 | Virtually no activation | No response | no response | did not compete for binding | IC50 (MIP-1α/RANTES receptor; [4]): ~0.1 nM; effect of prior exposure to the chemokine on the calcium response to the other chemokine (MM6 cells): could not be ablated |
| interleukin-8 [IL-8] | failed to block | failed to stimulate significant calcium signals |  | Virtually no activation | No response | No response |  | activation of the MIP-1α/RANTES receptor (MIP-1α/RANTES receptor): did not activate; calcium efflux response elicited (MCP-1RA; listed as Il-8): no response |
| macrophage inhibitory protein-1 [MIP-1α] | failed to block | failed to stimulate significant calcium signals | > 1000 | Virtually no activation | No response | no response | did not compete for binding | IC50 (MIP-1α/RANTES receptor; [4]): ~0.1 nM |
| pertussis toxin [reference compound] |  |  |  |  |  |  |  | component resistant to inhibition (MCP-1RB receptor [2]; calcium mobilization, up to 100 ng/ml of PT): ≈ 20%; block of MCP-1-induced mobilization of intracellular calcium (MCP-1RB receptor [2]; [5]): substantially blocked; component resistant to inhibition (MCP-1RB receptor [1]; adenylyl cyclase inhibition, up to 100 ng/ml of PT): ≈ 20%; shift of the MCP-1 IC50 for cAMP accumulation (MCP-1RB receptor [1]; pertussis toxin treatment): without significantly shifting; block of MCP-1 inhibition of adenylyl cyclase (MCP-1RB receptor [1]; [5]): substantially blocked |
| macrophage inhibitory protein-1 [MIP-1β] (protein, UniProt P13236 24-92, looked up, C--C chemokine, obtained from R&D) C-C motif chemokine 4: APMGSDPPTACCFSYTARKLPRNFVVDYYETSSLCSQPAVVFQTKRSKQVCADPSESWVQEYVYDLELN | failed to block | failed to stimulate significant calcium signals | > 1000 | Virtually no activation | No response | no response | did not compete for binding |  |
